Results taken from BindingDB's records for doi:10.1021/acs.jmedchem.8b00655 (University of Iowa, 2018).

Assay: Binding affinity to BTN3A1 in human PBMC assessed as stimulation of Vgamma9 Vdelta2 T cells incubated for 3 days and measured after 11 days post compound removal by flow cytometry

| SMILES | EC50 [nM] |
| --- | --- |
| CCOC(=O)CNP(=O)(CC/C=C(\C)CO)Oc1ccccc1 (stereo not given) | 0.36 |
| C/C(=C\CCP(=O)(NCC(=O)OC(C)C)Oc1cccc2ccccc12)CO (stereo not given) | 0.34 |
| COC(=O)CNP(=O)(CC/C=C(\C)CO)Oc1cccc2ccccc12 (stereo not given) | 0.44 |
| CCOC(=O)CNP(=O)(CC/C=C(\C)CO)Oc1cccc2ccccc12 (stereo not given) | 0.36 |
| CCOC(=O)CNP(=O)(CC/C=C(\C)CO)Oc1ccc2ccccc2c1 (stereo not given) | 0.53 |
| C/C(=C\CCP(=O)(NCC(=O)OC(C)C)Oc1ccc2ccccc2c1)CO (stereo not given) | 0.82 |
| COC(=O)CNP(=O)(CC/C=C(\C)CO)Oc1ccccc1 (stereo not given) | 1.5 |
| C/C(=C\CCP(=O)(NCC(=O)OC(C)C)Oc1ccccc1)CO (stereo not given) | 1.1 |
| COP(=O)(CC/C=C(\C)CO)OC | > 10000 |
| COC(=O)CNP(=O)(CC/C=C(\C)CO)Oc1ccc2ccccc2c1 (stereo not given) | 0.58 |
